# Experimental data reported in US10093644B2, “3-[(Benzo[D][1,3]dioxolan-4-yl)-oxy]-3-arylpropylamine type compounds and applications thereof” (NHWA PHARMA. CORPORATION, priority 2014, dated 2018).
# Values joined by “and” are separate entries in the source; they are usually repeats but may differ in a detail not shown here. Identical values can stand only once. Like-named read-outs stand apart in the source and are kept apart here.
# Experiments:
# mice [1] = assay: Mice tail suspension test (acquired despair experiment); format: in vivo; settings: for immobilized time of mice tail suspension: i.g. (gavage); for ED50: Mus musculus, read-out: tail suspension ED50
# mice [2] = assay: Mice forced swimming test (acquired despair experiment); format: in vivo; settings: for immobilized time of mice swimming: i.g. (gavage); for ED50: Mus musculus, read-out: swimming ED50
# [3] = Therapeutic index evaluation (LD50/ED50); format: in vivo; settings: for therapeutic index (swimming): LD50/ED50, swimming ED50; for therapeutic index (tail suspension): LD50/ED50, tail suspension ED50; for LD50: half lethal dose
# [4] = Acid stability evaluation in diluted hydrochloric acid; format: physicochemical; settings: 0.1 mol/L hydrochloric acid
# Protocol: The compound according to the invention was incubated in diluted hydrochloric acid (0.1 mol/L) at 37° C. for 2 h to test the decomposition of the compound (shown as %) and the results were shown as follows.
SMILES,tail suspension ED50 (mice [1]; half effective dose),swimming ED50 (mice [2]; half effective dose),therapeutic index (swimming) [3],therapeutic index (tail suspension) [3],LD50 [3],ratio of the compound after incubation in diluted hydrochloric acid at 37° C. for 2 h [4],"immobilized time of mice tail suspension (mice [1]; 5 mg/kg, oxalate form)","immobilized time of mice tail suspension (mice [1]; 10 mg/kg, oxalate form)",ED50 (mice [1]; half effective dose),"immobilized time of mice swimming (mice [2]; 5 mg/kg, oxalate form)","immobilized time of mice swimming (mice [2]; 10 mg/kg, oxalate form)",ED50 (mice [2]; half effective dose),"LD50 ([3]; in vivo, read-out: LD50)",immobilized time of mice tail suspension (mice [1]; 20 mg/kg),ED50 (mice [1]),immobilized time of mice swimming (mice [2]; 20 mg/kg),ED50 (mice [2])
"CNCCC(Oc1cccc2c1OCO2)c1cccs1 (centres unmarked) [ammuxetine, reference compound]",3.89 mg/kg,2.58 mg/kg,68.9,45.7,177.8 mg/kg,44%,–,–,–,–,–,–,–,–,–,–,–
"CNCCC(Oc1cccc2c1OCO2)c1ccccc1.O=C(O)C(=O)O (centres unmarked) [compound 2, 3-[(benzo[d][1,3]dioxolan-4-yl)-oxy]-N-methyl-3-phenylpropylamine oxalate]",–,–,88.8,25.2,–,99%,44.3 ± 34.5 s,8.2 ± 13.7 s,7.06 mg/kg,38.9 ± 34.5 s,28.6 ± 19.3 s,2 mg/kg,178 mg/kg,–,–,–,–
"CN(C)CCC(Oc1cccc2c1OCO2)c1ccc(F)cc1.O=C(O)C(=O)O (centres unmarked) [compound 3, 3-[(benzo[d][1,3]dioxolan-4-yl)-oxy]-3-(4-fluorophenyl)-N,N-dimethylpropylamine oxalate]",–,–,155.6,82.2,–,99%,22.0 ± 28.2 s,9.2 ± 13.3 s,4.32 mg/kg,42.0 ± 56.1 s,31.0 ± 54.2 s,2.28 mg/kg,355 mg/kg,–,–,–,–
"CNCCC(Oc1cccc2c1OCO2)c1ccc(F)cc1.O=C(O)C(=O)O (centres unmarked) [compound 4, 3-[(benzo[d][1,3]dioxolan-4-yl)-oxy]-3-(4-fluorophenyl)-N-methylpropylamine oxalate]",–,–,–,–,–,99%,21.4 ± 12.8 s,29.6 ± 13.1 s,–,74.1 ± 36.8 s,60.1 ± 42.2 s,–,–,–,–,–,–
"CNCCC(Oc1cccc2c1OCO2)c1cccc(OC)c1.O=C(O)C(=O)O (centres unmarked) [compound 12, 3-[(benzo[d][1,3]dioxolan-4-yl)-oxy]-3-(3-methoxylphenyl)-N-methylpropylamine oxalate]",–,–,60.7,37.4,–,99%,64.1 ± 24.5 s,33.0 ± 15.6 s,8.57 mg/kg,92.0 ± 45.5 s,58.2 ± 45.3 s,5.28 mg/kg,320 mg/kg,–,–,–,–
"Cc1cccc(C(CCN(C)C)Oc2cccc3c2OCO3)c1.O=C(O)C(=O)O (centres unmarked) [compound 13, 3-[(benzo[d][1,3]dioxolan-4-yl)-oxy]-3-(3-methylphenyl)-N,N-dimethylpropylamine oxalate]",–,–,–,–,–,99%,71.3 ± 32.7 s,29.8 ± 21.3 s,–,87.9 ± 55.6 s,60.2 ± 38.6 s,–,–,–,–,–,–
"CNCC[C@H](Oc1cccc2ccccc12)c1cccs1 [duloxetine, reference compound]",–,–,98.8 and 98.9,82.1,–,18%,–,34.7 ± 42.3 s,–,–,76.0 ± 57.8 s,–,489 mg/kg,17.8 ± 18.5 s,5.96 mg/kg,41.2 ± 33.3 s,4.94 mg/kg
